Assay results from PubChem BioAssay AID248 (DTP/NCI, 2004).
“And” between values parts separate entries of the source, which are not always exact repeats. Identical values can stand only once. Toxic doses and inconclusive results are not listed.

System: L1210 leukemia ip in BDF1 mice, survival T/C
Assay: NCI In Vivo Anticancer Drug Screen. Data for tumor model L1210 Leukemia (intraperitoneal) in B6D2F1 (BDF1) mice
Settings: endpoint: mean survival time, higher = longer survival
Procedure: The antitumor activity of compounds was measured in mice bearing transplantable tumors. Survival or tumor size were measured and the results are expressed as the measurement made in the treated group (T) divided by the measurement made in the vehicle treated control group (C). The tumor model used in this assay is L1210 Leukemia (intraperitoneal) in B6D2F1 (BDF1) mice

[1] = dose: 100.0 mg/kg/injection, schedule: Q04DX003 (ip), vehicle: saline with Tween-80
[2] = dose: 200.0 mg/kg/injection, schedule: Q04DX003 (ip), vehicle: saline with Tween-80
[3] = dose: 400.0 mg/kg/injection, schedule: Q04DX003 (ip), vehicle: saline with Tween-80
[4] = dose: 100.0 mg/kg/injection, schedule: Q04DX002 (ip), vehicle: Klucel (hydroxypropylcellulose) (HPC)
[5] = dose: 200.0 mg/kg/injection, schedule: Q04DX002 (ip), vehicle: Klucel (hydroxypropylcellulose) (HPC)
[6] = dose: 400.0 mg/kg/injection, schedule: Q04DX002 (ip), vehicle: Klucel (hydroxypropylcellulose) (HPC)
[7] = dose: 100.0 mg/kg/injection, schedule: Q01DX009 (ip), vehicle: saline with Tween-80
[8] = dose: 200.0 mg/kg/injection, schedule: Q01DX009 (ip), vehicle: saline with Tween-80
[9] = dose: 100.0 mg/kg/injection, schedule: Q01DX001 (ip), vehicle: saline
[10] = dose: 200.0 mg/kg/injection, schedule: Q01DX001 (ip), vehicle: saline
[11] = dose: 100.0 mg/kg/injection, schedule: Q04DX003 (ip), vehicle: Klucel (hydroxypropylcellulose) (HPC)
[12] = dose: 200.0 mg/kg/injection, schedule: Q04DX003 (ip), vehicle: Klucel (hydroxypropylcellulose) (HPC)
[13] = dose: 400.0 mg/kg/injection, schedule: Q04DX003 (ip), vehicle: Klucel (hydroxypropylcellulose) (HPC)
[14] = dose: 100.0 mg/kg/injection, schedule: Q01DX009 (ip), vehicle: Klucel (hydroxypropylcellulose) (HPC)
[15] = dose: 100.0 mg/kg/injection, schedule: Q01DX009 (ip), vehicle: acetone
[16] = dose: 100.0 mg/kg/injection, schedule: Q04DX003 (ip), vehicle: saline
[17] = dose: 200.0 mg/kg/injection, schedule: Q01DX009 (ip), vehicle: Klucel (hydroxypropylcellulose) (HPC)
[18] = dose: 200.0 mg/kg/injection, schedule: Q01DX009 (ip), vehicle: acetone
[19] = dose: 200.0 mg/kg/injection, schedule: Q04DX003 (ip), vehicle: saline
[20] = dose: 400.0 mg/kg/injection, schedule: Q01DX009 (ip), vehicle: Klucel (hydroxypropylcellulose) (HPC)
[21] = dose: 400.0 mg/kg/injection, schedule: Q04DX003 (ip), vehicle: saline

## O=C(O)/C=C/C=C/c1ccccc1
[1]
  T/C: 97 % of control
[2]
  T/C: 92 % of control
[3]
  T/C: 106 % of control

## O=C(N/N=C/c1cccc2ccccc12)c1ccc(O)cc1
[4]
  T/C: 100 % of control
[5]
  T/C: 100 % of control
[6]
  T/C: 103 % of control

## CCC1(c2ccccc2)C(=O)N(COCc2ccccc2)C(=O)N(COCc2ccccc2)C1=O
[7]
  T/C: 98 % of control
dose: 100.0 mg/kg/injection, schedule: Q04DX002 (ip), vehicle: saline with Tween-80
  T/C: 98 % of control
[8]
  T/C: 102 % of control
dose: 200.0 mg/kg/injection, schedule: Q04DX002 (ip), vehicle: saline with Tween-80
  T/C: 95 % of control
dose: 400.0 mg/kg/injection, schedule: Q01DX009 (ip), vehicle: saline with Tween-80
  T/C: 95 % of control
dose: 400.0 mg/kg/injection, schedule: Q04DX002 (ip), vehicle: saline with Tween-80
  T/C: 98 % of control

## Cc1ccc(C)c2c1c1ccccc1n2N=O
dose: 50.0 mg/kg/injection, schedule: Q01DX001 (ip), vehicle: saline
  T/C: 97 % of control
[9]
  T/C: 100 % of control
[10]
  T/C: 100 % of control
dose: 400.0 mg/kg/injection, schedule: Q01DX001 (ip), vehicle: saline
  T/C: 114 % of control

## Clc1ccc(SSc2ccc(Cl)cc2)cc1
[1]
  T/C: 102 % of control
[2]
  T/C: 94 % of control
[3]
  T/C: 98 % of control

## O=P(OCC(Br)CBr)(OCC(Br)CBr)OCC(Br)CBr (centres undefined)
dose: 50.0 mg/kg/injection, schedule: Q04DX003 (ip), vehicle: Klucel (hydroxypropylcellulose) (HPC)
  T/C: 107 % of control
[11]
  T/C: 98 % of control
[12]
  T/C: 106 % of control
[13]
  T/C: 106 % of control

## O=[N+]([O-])c1cc(C(F)(F)F)cc([N+](=O)[O-])c1Cl
dose: 12.5 mg/kg/injection, schedule: Q01DX001 (ip), vehicle: Klucel (hydroxypropylcellulose) (HPC)
  T/C: 91 % of control
dose: 25.0 mg/kg/injection, schedule: Q01DX001 (ip), vehicle: Klucel (hydroxypropylcellulose) (HPC)
  T/C: 91 % of control

## O=C(NO)c1ccccc1
dose: 25.0 mg/kg/injection, schedule: Q03HX032 (ip), vehicle: saline
  T/C: 97 % of control
dose: 38.0 mg/kg/injection, schedule: Q03HX032 (ip), vehicle: saline
  T/C: 95 % of control
dose: 50.0 mg/kg/injection, schedule: Q01DX009 (ip), vehicle: Klucel (hydroxypropylcellulose) (HPC)
  T/C: 90 % of control
dose: 50.0 mg/kg/injection, schedule: Q01DX009 (ip), vehicle: saline with Tween-80
  T/C: 98 % of control
dose: 57.0 mg/kg/injection, schedule: Q01DX015 (ip), vehicle: saline
  T/C: 92 % of control
dose: 57.0 mg/kg/injection, schedule: Q03HX032 (ip), vehicle: saline
  T/C: 100 % of control
dose: 62.0 mg/kg/injection, schedule: Q03HX024 (ip), vehicle: saline
  T/C: 96 % of control
dose: 85.0 mg/kg/injection, schedule: Q01DX015 (ip), vehicle: saline
  T/C: 90 % of control
dose: 85.0 mg/kg/injection, schedule: Q03HX032 (ip), vehicle: saline
  T/C: 98 % of control and 100 % of control
[9]
  T/C: 95 % of control
[14]
  T/C: 97 % of control and 113 % of control
[15]
  T/C: 98 % of control
[7]
  T/C: 96 % of control
[16]
  T/C: 103 % of control
dose: 125.0 mg/kg/injection, schedule: Q03HX024 (ip), vehicle: saline
  T/C: 91 % of control
dose: 130.0 mg/kg/injection, schedule: Q01DX015 (ip), vehicle: saline
  T/C: 100 % of control
dose: 130.0 mg/kg/injection, schedule: Q03HX032 (ip), vehicle: saline
  T/C: 98 % of control
dose: 177.0 mg/kg/injection, schedule: Q01DX009 (ip), vehicle: saline
  T/C: 100 % of control
dose: 178.0 mg/kg/injection, schedule: Q01DX009 (ip), vehicle: saline with Tween-80
  T/C: 110 % of control
[10]
  T/C: 92 % of control
[17]
  T/C: 115 % of control and 124 % of control
[18]
  T/C: 98 % of control
[8]
  T/C: 112 % of control
dose: 200.0 mg/kg/injection, schedule: Q01DX015 (ip), vehicle: saline
  T/C: 97 % of control and 113 % of control
[19]
  T/C: 108 % of control
dose: 264.0 mg/kg/injection, schedule: Q01DX009 (ip), vehicle: acetone
  T/C: 120 % of control
dose: 264.0 mg/kg/injection, schedule: Q01DX009 (ip), vehicle: saline
  T/C: 123 % of control
dose: 264.0 mg/kg/injection, schedule: Q04DX003 (ip), vehicle: saline
  T/C: 105 % of control and 112 % of control
dose: 266.0 mg/kg/injection, schedule: Q01DX009 (ip), vehicle: saline with Tween-80
  T/C: 113 % of control
dose: 300.0 mg/kg/injection, schedule: Q01DX015 (ip), vehicle: saline
  T/C: 121 % of control
[20]
  T/C: 168 % of control
dose: 400.0 mg/kg/injection, schedule: Q01DX009 (ip), vehicle: acetone
  T/C: 153 % of control
[21]
  T/C: 117 % of control and 91 % of control
dose: 450.0 mg/kg/injection, schedule: Q01DX015 (ip), vehicle: saline
  T/C: 153 % of control
dose: 600.0 mg/kg/injection, schedule: Q01DX009 (ip), vehicle: saline
  T/C: 159 % of control

## C1OCC2(CO1)COCOC2
dose: 50.0 mg/kg/injection, schedule: Q01DX009 (ip), vehicle: acetone
  T/C: 95 % of control
[15]
  T/C: 91 % of control
[16]
  T/C: 95 % of control
[18]
  T/C: 93 % of control
[19]
  T/C: 103 % of control
[21]
  T/C: 105 % of control

## Cc1ccc([N+](=O)[O-])cc1NC(=O)Nc1ccccc1C(N)=O
[4]
  T/C: 114 % of control
[5]
  T/C: 103 % of control
[6]
  T/C: 94 % of control

## CCS(=O)(=O)/C=C/c1ccco1
dose: 12.5 mg/kg/injection, schedule: Q04DX003 (ip), vehicle: carboxymethylcellulose (CMC)
  T/C: 98 % of control
dose: 25.0 mg/kg/injection, schedule: Q04DX003 (ip), vehicle: carboxymethylcellulose (CMC)
  T/C: 95 % of control

## CNCCOCc1ccccc1
[9]
  T/C: 96 % of control
[10]
  T/C: 91 % of control

## O=[N+]([O-])c1cc(S(=O)(=O)O)ccc1Cl
dose: 100.0 mg/kg/injection, schedule: Q04DX003 (ip), vehicle: carboxymethylcellulose (CMC)
  T/C: 100 % of control
[1]
  T/C: 98 % of control
dose: 200.0 mg/kg/injection, schedule: Q04DX003 (ip), vehicle: carboxymethylcellulose (CMC)
  T/C: 101 % of control
[2]
  T/C: 102 % of control
dose: 400.0 mg/kg/injection, schedule: Q04DX003 (ip), vehicle: carboxymethylcellulose (CMC)
  T/C: 97 % of control
[3]
  T/C: 101 % of control

## NNC(=O)CCN1CC1
[11]
  T/C: 109 % of control
[12]
  T/C: 107 % of control
[13]
  T/C: 115 % of control

## Cc1ccc(C)c(OC(=O)Nc2cccc(C(F)(F)F)c2)c1
dose: 100.0 mg/kg/injection, schedule: Q01DX001 (ip), vehicle: Klucel (hydroxypropylcellulose) (HPC)
  T/C: 104 % of control
[14]
  T/C: 93 % of control and 110 % of control
[4]
  T/C: 105 % of control
[11]
  T/C: 92 % of control
dose: 200.0 mg/kg/injection, schedule: Q01DX001 (ip), vehicle: Klucel (hydroxypropylcellulose) (HPC)
  T/C: 98 % of control
[17]
  T/C: 96 % of control and 109 % of control
[5]
  T/C: 99 % of control and 115 % of control
[12]
  T/C: 97 % of control
dose: 400.0 mg/kg/injection, schedule: Q01DX001 (ip), vehicle: Klucel (hydroxypropylcellulose) (HPC)
  T/C: 100 % of control
[20]
  T/C: 101 % of control and 86 % of control
[6]
  T/C: 101 % of control and 105 % of control
[13]
  T/C: 103 % of control

## CNC(=S)N/N=C/CSC/C=N/NC(=S)NC
dose: 0.2 mg/kg/injection, schedule: Q03HX024 (ip), vehicle: saline with Tween-80
  T/C: 100 % of control
dose: 0.39 mg/kg/injection, schedule: Q03HX024 (ip), vehicle: saline with Tween-80
  T/C: 97 % of control
dose: 0.78 mg/kg/injection, schedule: Q03HX024 (ip), vehicle: saline with Tween-80
  T/C: 93 % of control
dose: 1.56 mg/kg/injection, schedule: Q03HX024 (ip), vehicle: saline with Tween-80
  T/C: 108 % of control
dose: 3.13 mg/kg/injection, schedule: Q03HX024 (ip), vehicle: saline with Tween-80
  T/C: 100 % of control
